Patent US20240327364A1, “THERAPEUTIC TARGETING OF GPR68 TO INDUCE FERROPTOSIS” (University Of Maryland, Baltimore, priority 2023, published 2024)

Assays:
CCK2 = biological target: T1, CCK2 (Homo sapiens, UniProt P32239); assay: GPCR Profiler; format: cell-based
T1 construct: host or cells: Chem-1 cells with promiscuous Gα15

5-HT2C = biological target: T2, 5-HT2C (Homo sapiens, UniProt P28335); assay: GPCR Profiler; format: cell-based
T2 construct: host or cells: Chem-1 cells with promiscuous Gα15

p38-delta = biological target: T3, p38-delta (Homo sapiens, UniProt O15264); assay: KinomeScan; format: binding; conditions: read-out: % Control
T3 construct: purchased DiscoveRx

A1 = biological target: T4, A1 (Homo sapiens, UniProt P30542); assay: GPCR Profiler; format: cell-based
T4 construct: host or cells: Chem-1 cells with promiscuous Gα15

PDGFRB = biological target: T5, PDGFRB (Homo sapiens, UniProt P09619); assay: KinomeScan; format: binding; conditions: read-out: % Control
T5 construct: purchased DiscoveRx (Fremont, CA)

RET(M918T) = biological target: T6, RET(M918T) (Homo sapiens, UniProt P07949, M918T); assay: KinomeScan; format: binding; conditions: read-out: % Control
T6 construct: purchased DiscoveRx (Fremont, CA)

VPAC2 = biological target: T7, VPAC2 (Homo sapiens, UniProt P41587); assay: GPCR Profiler; format: cell-based
T7 construct: host or cells: Chem-1 cells expressing Galpha15

sst5 = biological target: T8, sst5 (Homo sapiens, UniProt P35346); assay: GPCR Profiler; format: cell-based
T8 construct: host or cells: Chem-1 cells with Gα15

sst2 = biological target: T9, sst2 (Homo sapiens, UniProt P30874); assay: GPCR Profiler; format: cell-based
T9 construct: host or cells: Chem-1 cells with Gα15

HIPK3 = biological target: T10, HIPK3 (Homo sapiens, UniProt Q9H422); assay: KinomeScan; format: binding; conditions: read-out: % Control
T10 construct: purchased DiscoveRx (Fremont, CA)

CXCR1 = biological target: T11, CXCR1 (Homo sapiens, UniProt P25024); assay: GPCR Profiler; format: cell-based
T11 construct: host or cells: Chem-1 cells with Gα15

LRRK2 = biological target: T12, LRRK2 (Homo sapiens, UniProt Q5S007); assay: KinomeScan; format: binding; conditions: read-out: % Control
T12 construct: purchased DiscoveRx

KIT(D816H) = biological target: T13, KIT(D816H) (Homo sapiens, UniProt P10721, D816H); assay: KinomeScan; format: binding; conditions: read-out: % Control
T13 construct: purchased DiscoveRx

SgK110 = biological target: T14, SgK110 (Homo sapiens, UniProt P0C264); assay: KinomeScan; format: binding; conditions: read-out: % Control
T14 construct: purchased DiscoveRx (Fremont, CA)

NEK9 = biological target: T15, NEK9 (Homo sapiens, UniProt Q8TD19); assay: KinomeScan; format: binding; conditions: read-out: % Control
T15 construct: purchased DiscoveRx

OPRM1 = biological target: T16, OPRM1 (Homo sapiens, UniProt P35372); assay: GPCR Profiler; format: cell-based
T16 construct: host or cells: Chem-1 cells expressing Gα15

PAK1 = biological target: T17, PAK1 (Homo sapiens, UniProt Q13153); assay: KinomeScan; format: binding; conditions: read-out: % Control
T17 construct: purchased DiscoveRx

BDKR2 = biological target: T18, BDKR2 (Homo sapiens, UniProt P30411); assay: GPCR Profiler; format: cell-based
T18 construct: host or cells: Chem-1 cells with promiscuous Gα15

ADRA2A = biological target: T19, ADRA2A (Homo sapiens, UniProt P08913); assay: GPCR Profiler; format: cell-based
T19 construct: host or cells: Chem-1 cells with promiscuous Gα15

EPHB3 = biological target: T20, EPHB3 (Homo sapiens, UniProt P54753); assay: KinomeScan; format: binding; conditions: read-out: % Control
T20 construct: purchased DiscoveRx (Fremont, CA)

H3 = biological target: T21, H3 (Homo sapiens, UniProt Q9Y5N1); assay: GPCR Profiler; format: cell-based
T21 construct: host or cells: Chem-1 cells with promiscuous Gα15

PFTK1 = biological target: T22, PFTK1 (Homo sapiens, UniProt O94921); assay: KinomeScan; format: binding; conditions: read-out: % Control
T22 construct: purchased DiscoveRx (Fremont, CA)

PIK3CD = biological target: T23, PIK3CD (Homo sapiens, UniProt O00329); assay: KinomeScan; format: binding; conditions: read-out: % Control
T23 construct: purchased DiscoveRx (Fremont, CA)

sst3 = biological target: T24, sst3 (Homo sapiens, UniProt P32745); assay: GPCR Profiler; format: cell-based
T24 construct: host or cells: Chem-1 cells with Gα15

PRKG1 = biological target: T25, PRKG1 (Homo sapiens, UniProt Q13976); assay: KinomeScan; format: binding; conditions: read-out: % Control
T25 construct: purchased DiscoveRx (Fremont, CA)

CDC2L5 = biological target: T26, CDC2L5 (Homo sapiens, UniProt Q14004); assay: KinomeScan; format: binding; conditions: read-out: % Control
T26 construct: purchased DiscoveRx (KinomeScan service)
Method: (§1) GPCR profiling assays were performed by Millipore (St. Louis, MO) using in cells expressing Gα15, a promiscuous G protein that enhances GPCR coupling to downstream Ca2+ signaling pathways. KinomeScan was conducted by DiscoveRx (Fremont, CA).
(§2) To identify the target of OGM1, the molecule was profiled for binding in a panel of 442 kinases (KinomeScan™, DiscoveRx™) and assessed its activity against 158 GPCRs in a single-point assay in Chem-1 cells that uses a promiscuous Gα15 protein to trigger calcium flux (see Table 9 and Table 10, below). […] Table 9. KinomeScan (DiscoverRx) profiling of OGM1.

PRP4 = biological target: T27, PRP4 (Homo sapiens, UniProt Q13523); assay: KinomeScan; format: binding; conditions: read-out: % Control
T27 construct: purchased DiscoveRx (Fremont, CA)
Method: as §1, §2

[1] = biological target: T28, ABL1(E255K)-phosphorylated (Homo sapiens, UniProt P00519, E255K); assay: KinomeScan; format: binding; conditions: read-out: % Control
T28 construct: purchased DiscoveRx

YSK1 = biological target: T29, YSK1 (Homo sapiens, UniProt O00506); assay: KinomeScan; format: binding; conditions: read-out: % Control
T29 construct: purchased DiscoveRx

[2] = biological target: T30, RSK4(Kin Dom.1-N-terminal) (Homo sapiens, UniProt Q9UK32); assay: KinomeScan; format: binding; conditions: read-out: % Control
T30 construct: RSK4(Kin Dom.1-N-terminal); purchased DiscoveRx (Fremont, CA)

BRAF = biological target: T31, BRAF (Homo sapiens, UniProt P15056); assay: KinomeScan; format: binding; conditions: read-out: % Control
T31 construct: purchased DiscoveRx (Fremont, CA)

PIK3CB = biological target: T32, PIK3CB (Homo sapiens, UniProt P42338); assay: KinomeScan; format: binding; conditions: read-out: % Control
T32 construct: purchased DiscoveRx (Fremont, CA)

T9 sequence (P30874 whole entry, species assumed): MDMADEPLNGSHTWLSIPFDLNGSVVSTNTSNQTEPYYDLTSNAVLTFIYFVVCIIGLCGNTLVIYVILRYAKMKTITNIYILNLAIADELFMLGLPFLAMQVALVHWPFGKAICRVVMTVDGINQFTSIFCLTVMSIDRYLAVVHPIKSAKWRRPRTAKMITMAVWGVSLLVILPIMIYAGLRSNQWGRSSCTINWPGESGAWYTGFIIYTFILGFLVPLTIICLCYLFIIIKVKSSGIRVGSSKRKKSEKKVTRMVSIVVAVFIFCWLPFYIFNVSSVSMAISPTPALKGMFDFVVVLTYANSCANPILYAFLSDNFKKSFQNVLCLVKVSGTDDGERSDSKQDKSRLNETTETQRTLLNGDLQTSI
T16 sequence (P35372 whole entry, species assumed): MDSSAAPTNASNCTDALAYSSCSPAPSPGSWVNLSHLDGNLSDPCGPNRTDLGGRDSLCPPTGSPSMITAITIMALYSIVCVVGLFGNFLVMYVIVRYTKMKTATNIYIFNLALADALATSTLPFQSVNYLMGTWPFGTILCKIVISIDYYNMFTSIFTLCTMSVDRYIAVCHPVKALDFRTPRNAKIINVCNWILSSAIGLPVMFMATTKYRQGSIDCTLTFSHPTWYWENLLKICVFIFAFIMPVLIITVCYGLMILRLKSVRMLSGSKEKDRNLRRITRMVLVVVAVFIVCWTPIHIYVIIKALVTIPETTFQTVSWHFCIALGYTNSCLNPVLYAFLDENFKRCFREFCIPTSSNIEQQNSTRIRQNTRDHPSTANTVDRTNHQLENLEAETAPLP
T19 sequence (P08913 whole entry, species assumed): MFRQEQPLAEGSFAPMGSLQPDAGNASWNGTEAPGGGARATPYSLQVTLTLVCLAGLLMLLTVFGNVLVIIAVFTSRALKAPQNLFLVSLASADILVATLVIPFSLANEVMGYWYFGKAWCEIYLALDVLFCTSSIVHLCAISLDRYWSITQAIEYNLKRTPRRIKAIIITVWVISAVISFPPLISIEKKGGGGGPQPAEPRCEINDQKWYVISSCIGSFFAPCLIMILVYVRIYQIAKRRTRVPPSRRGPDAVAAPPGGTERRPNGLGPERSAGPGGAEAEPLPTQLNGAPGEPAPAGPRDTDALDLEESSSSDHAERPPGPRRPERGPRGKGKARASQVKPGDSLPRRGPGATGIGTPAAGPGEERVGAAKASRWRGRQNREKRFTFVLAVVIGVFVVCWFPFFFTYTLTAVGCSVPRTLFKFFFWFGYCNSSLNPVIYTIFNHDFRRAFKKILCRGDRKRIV
T7 sequence (P41587 24-438): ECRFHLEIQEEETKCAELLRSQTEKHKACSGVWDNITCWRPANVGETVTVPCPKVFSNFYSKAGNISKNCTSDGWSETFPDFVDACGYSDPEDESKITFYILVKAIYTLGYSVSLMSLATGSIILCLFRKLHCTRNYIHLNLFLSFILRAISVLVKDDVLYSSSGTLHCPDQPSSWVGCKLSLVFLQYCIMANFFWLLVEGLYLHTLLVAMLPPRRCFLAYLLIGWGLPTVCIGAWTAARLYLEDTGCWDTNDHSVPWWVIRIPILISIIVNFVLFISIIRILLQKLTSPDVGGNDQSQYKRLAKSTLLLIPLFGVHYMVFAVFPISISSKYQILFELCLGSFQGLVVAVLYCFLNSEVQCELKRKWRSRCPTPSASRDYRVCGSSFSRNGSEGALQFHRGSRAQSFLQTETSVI
T21 sequence (Q9Y5N1 whole entry): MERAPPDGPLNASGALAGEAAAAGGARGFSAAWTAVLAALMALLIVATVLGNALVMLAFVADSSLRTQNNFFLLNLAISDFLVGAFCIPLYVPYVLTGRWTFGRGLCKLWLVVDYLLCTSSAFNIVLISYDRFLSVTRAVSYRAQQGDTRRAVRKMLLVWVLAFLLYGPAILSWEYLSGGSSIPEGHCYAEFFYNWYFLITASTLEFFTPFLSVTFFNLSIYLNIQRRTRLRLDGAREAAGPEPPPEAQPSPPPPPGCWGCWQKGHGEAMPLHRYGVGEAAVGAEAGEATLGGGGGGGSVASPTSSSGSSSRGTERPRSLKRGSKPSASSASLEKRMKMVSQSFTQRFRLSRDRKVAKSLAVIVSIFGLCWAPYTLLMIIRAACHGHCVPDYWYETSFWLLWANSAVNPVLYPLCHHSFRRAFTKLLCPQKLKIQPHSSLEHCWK
T24 sequence (P32745 whole entry, species assumed): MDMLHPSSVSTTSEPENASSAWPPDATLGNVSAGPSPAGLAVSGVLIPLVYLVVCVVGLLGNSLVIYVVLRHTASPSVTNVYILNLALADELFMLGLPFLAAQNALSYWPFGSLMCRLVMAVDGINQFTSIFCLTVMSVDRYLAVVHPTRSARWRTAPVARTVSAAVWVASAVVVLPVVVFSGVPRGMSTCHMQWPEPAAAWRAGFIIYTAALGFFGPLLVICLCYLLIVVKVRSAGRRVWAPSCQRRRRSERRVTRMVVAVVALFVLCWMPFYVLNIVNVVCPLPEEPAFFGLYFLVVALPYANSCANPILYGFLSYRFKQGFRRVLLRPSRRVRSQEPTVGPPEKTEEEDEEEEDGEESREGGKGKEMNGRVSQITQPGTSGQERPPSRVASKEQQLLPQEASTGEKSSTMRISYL
T18 sequence (P30411 whole entry): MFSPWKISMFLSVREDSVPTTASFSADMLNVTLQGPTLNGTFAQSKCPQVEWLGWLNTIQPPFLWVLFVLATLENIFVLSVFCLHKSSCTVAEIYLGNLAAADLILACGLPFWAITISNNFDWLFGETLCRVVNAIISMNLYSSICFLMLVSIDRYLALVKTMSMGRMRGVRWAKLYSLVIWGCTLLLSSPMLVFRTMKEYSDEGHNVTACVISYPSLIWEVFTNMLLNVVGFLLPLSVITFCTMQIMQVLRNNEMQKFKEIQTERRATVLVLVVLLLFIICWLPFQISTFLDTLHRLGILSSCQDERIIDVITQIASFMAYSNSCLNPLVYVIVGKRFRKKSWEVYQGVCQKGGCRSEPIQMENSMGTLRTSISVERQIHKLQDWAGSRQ
T8 sequence (P35346 whole entry, species assumed): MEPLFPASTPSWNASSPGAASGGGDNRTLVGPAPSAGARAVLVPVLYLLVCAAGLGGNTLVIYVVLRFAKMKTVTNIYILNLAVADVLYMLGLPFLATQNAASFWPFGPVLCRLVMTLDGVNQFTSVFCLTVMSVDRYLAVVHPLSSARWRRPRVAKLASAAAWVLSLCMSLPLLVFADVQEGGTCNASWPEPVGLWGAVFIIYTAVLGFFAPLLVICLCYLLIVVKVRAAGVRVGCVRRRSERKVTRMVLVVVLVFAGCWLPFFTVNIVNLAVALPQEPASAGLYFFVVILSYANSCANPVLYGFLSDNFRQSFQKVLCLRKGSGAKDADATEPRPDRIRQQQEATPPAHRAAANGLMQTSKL
T11 sequence (P25024 whole entry, species assumed): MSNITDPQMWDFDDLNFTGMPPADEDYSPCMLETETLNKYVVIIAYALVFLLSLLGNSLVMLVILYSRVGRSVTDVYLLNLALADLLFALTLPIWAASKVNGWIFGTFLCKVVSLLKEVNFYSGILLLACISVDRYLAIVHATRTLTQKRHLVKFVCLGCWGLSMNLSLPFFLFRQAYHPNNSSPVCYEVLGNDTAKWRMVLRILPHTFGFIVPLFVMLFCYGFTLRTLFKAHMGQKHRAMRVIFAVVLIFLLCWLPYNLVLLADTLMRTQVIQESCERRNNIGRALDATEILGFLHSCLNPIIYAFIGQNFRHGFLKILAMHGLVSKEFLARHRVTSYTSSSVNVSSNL
T2 sequence (P28335 33-458): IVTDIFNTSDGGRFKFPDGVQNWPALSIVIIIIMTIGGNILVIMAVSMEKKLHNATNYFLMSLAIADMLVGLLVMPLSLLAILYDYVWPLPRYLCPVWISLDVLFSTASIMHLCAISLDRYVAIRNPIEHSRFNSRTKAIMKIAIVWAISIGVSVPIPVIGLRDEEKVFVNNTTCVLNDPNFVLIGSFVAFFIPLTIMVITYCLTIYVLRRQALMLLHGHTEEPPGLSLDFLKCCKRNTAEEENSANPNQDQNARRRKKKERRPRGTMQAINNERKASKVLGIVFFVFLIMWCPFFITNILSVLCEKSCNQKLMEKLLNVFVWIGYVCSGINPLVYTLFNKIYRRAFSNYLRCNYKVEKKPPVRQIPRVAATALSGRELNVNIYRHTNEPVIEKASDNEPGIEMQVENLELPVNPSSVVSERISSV
T1 sequence (P32239 whole entry): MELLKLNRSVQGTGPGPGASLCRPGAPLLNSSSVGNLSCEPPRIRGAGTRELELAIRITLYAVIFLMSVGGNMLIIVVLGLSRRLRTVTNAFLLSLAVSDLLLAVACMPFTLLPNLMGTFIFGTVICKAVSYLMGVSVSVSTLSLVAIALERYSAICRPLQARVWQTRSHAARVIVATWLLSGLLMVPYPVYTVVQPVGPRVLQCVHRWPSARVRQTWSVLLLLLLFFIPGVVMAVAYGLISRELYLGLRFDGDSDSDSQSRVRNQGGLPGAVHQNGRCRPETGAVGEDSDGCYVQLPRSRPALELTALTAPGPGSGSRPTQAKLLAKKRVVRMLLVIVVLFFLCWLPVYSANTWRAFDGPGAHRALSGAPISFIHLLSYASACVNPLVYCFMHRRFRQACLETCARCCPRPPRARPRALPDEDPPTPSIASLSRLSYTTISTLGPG
T4 sequence (P30542 whole entry): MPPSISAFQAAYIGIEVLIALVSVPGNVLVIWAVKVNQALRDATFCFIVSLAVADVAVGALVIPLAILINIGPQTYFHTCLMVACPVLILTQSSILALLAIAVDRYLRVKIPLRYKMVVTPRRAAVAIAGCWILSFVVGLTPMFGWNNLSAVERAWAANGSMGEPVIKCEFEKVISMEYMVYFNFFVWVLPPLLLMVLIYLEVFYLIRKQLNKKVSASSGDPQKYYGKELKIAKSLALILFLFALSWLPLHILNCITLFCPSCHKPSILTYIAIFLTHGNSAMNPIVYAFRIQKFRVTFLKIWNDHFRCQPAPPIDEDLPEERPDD

SMILES: CCc1ccc2c(c1)C1(NN=C(c3cccc4ccccc34)S1)C(=O)N2 (centres unmarked) [OGM1, 5-ethyl-5′-naphthalen-1-ylspiro[1H-indole-3,2′-3H-1,3,4-thiadiazole]-2-one]
- Antagonism (CCK2; 10 uM): 14.9
- Agonism (CCK2; 12.5 uM): −0.4
- Antagonism (5-HT2C; 10 uM): −10.9
- Agonism (5-HT2C; 12.5 uM): 2.2
- remaining binding at 10 µM (p38-delta): 81%
- Antagonism (A1; 10 uM): −13.9
- Agonism (A1; 12.5 uM): 0.1
- remaining binding at 10 µM (PDGFRB): 72%
- remaining binding at 10 µM (RET(M918T)): 92%
- Antagonism (VPAC2; 10 uM): 6.9
- Agonism (VPAC2; 12.5 uM): 10.7
- Antagonism (sst5; 10 uM): −4
- Agonism (sst5; 12.5 uM): −0.3
- Antagonism (sst2; 10 uM): −1
- Agonism (sst2; 12.5 uM): −0.2
- remaining binding at 10 µM (HIPK3): 67%
- Antagonism (CXCR1; 10 uM): 6.5
- Agonism (CXCR1; 12.5 uM): −0.7
- remaining binding at 10 µM (LRRK2): 100%
- remaining binding at 10 µM (KIT(D816H)): 97%
- remaining binding at 10 µM (SgK110): 100%
- remaining binding at 10 µM (NEK9): 100%
- Antagonism (OPRM1; 10 uM): −0.7
- Agonism (OPRM1; 12.5 uM): −0.7
- remaining binding at 10 µM (PAK1): 70%
- Antagonism (BDKR2; 10 uM): 3.4
- Agonism (BDKR2; 12.5 uM): −2.4
- Antagonism (ADRA2A; 10 uM): −5.1
- Agonism (ADRA2A; 12.5 uM): 0.1
- remaining binding at 10 µM (EPHB3): 100%
- Antagonism (H3; 10 uM): −3.3
- Agonism (H3; 12.5 uM): 0.5
- remaining binding at 10 µM (PFTK1): 92%
- remaining binding at 10 µM (PIK3CD): 55%
- Antagonism (sst3; 10 uM): 0
- Agonism (sst3; 12.5 uM): 0
- remaining binding at 10 µM (PRKG1): 100%
- remaining binding at 10 µM (CDC2L5): 99%
- remaining binding at 10 µM (PRP4): 100%
- remaining binding at 10 µM [1]: 77%
- remaining binding at 10 µM (YSK1): 80%
- remaining binding at 10 µM [2]: 100%
- remaining binding at 10 µM (BRAF): 96%
- remaining binding at 10 µM (PIK3CB): 100%
